Experimental data as given in ChEMBL document CHEMBL3217534, “Glyco-Phospho-Glycero Ether Lipids (GPGEL): synthesis and evaluation as small conductance Ca2+-activated K+ channel (SK3) inhibitors” (Medchemcomm, 2012).
≈ marks a conversion by molar mass, not a printed value. Calls of active or inactive are those of the source. No cut-off for these calls is given here.

Tests used:
[1] = tested on: HEK-293T; assay: Cytotoxicity against HEK293T cells expressing rat SK3 assessed as cell viability at 10 uM after 48 hrs by MTT assay; format: cell-based; details: human
[2] = tested on: HEK-293T; assay: Effect on SK3 deficient HEK293T cell migration at 100 nM after 15 hrs by DAPI staining; format: functional, cell-based; details: Homo sapiens
[3] = biological target: Small conductance calcium-activated potassium channel protein 3 (Rattus norvegicus) (UniProt P70605); assay: Inhibition of recombinant rat SK3 expressed in HEK293T cells assessed as inhibition of cell migration at 100 nM after 15 hrs by DAPI staining; format: cell-based; details: HEK-293T
[4] = biological target: Small conductance calcium-activated potassium channel protein 3 (Rattus norvegicus) (UniProt P70605); assay: Inhibition of recombinant rat SK3 expressed in HEK293T cells assessed as decrease in channel current amplitude at 0 mV holding potential at 10 uM measured for 3 mins by patch clamp assay relative to control; format: cell-based; details: HEK-293T
[5] = Solubility of the compound in water; format: physicochemical

Small conductance calcium-activated potassium channel protein 3 (Rattus norvegicus), sequence (P70605 whole entry): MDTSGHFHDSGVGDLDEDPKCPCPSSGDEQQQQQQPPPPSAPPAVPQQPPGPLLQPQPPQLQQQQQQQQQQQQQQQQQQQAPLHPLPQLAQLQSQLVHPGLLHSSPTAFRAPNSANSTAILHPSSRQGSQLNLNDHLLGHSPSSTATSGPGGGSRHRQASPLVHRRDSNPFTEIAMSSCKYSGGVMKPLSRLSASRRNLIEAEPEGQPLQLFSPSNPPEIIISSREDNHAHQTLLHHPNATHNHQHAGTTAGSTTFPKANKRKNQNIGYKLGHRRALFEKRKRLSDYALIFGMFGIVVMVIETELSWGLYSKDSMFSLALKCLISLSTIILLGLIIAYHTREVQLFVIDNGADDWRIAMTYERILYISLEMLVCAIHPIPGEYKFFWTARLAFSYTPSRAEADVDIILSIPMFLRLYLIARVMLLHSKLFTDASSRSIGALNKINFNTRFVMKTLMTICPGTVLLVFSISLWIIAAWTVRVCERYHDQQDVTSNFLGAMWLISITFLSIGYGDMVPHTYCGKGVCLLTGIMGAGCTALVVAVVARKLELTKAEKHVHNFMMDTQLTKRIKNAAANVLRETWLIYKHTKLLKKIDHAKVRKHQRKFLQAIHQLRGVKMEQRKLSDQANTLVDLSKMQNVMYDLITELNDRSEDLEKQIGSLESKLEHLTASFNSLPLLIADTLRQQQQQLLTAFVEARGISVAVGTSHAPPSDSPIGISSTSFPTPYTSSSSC

Row | Structure (SMILES) | Activity [1] | Activity [2] | inhibition [3] [%] | inhibition [4] [%] | solubility [5] [µM]
1 | CCCCCCCCCCCCCCCCOCC(COP(=O)(O)O[C@H]1O[C@H](CO)[C@@H](O[C@H]2O[C@H](CO)[C@@H](O)[C@H](O)[C@H]2O)[C@H](O)[C@H]1O)OC.CCN(CC)CC (some centres not stated) | Non-toxic | inactive | 40 | 70.8 | 
2 | CCCCCCCCCCCCCCCCOCC(COP(=O)(O)OC1O[C@H](CO[C@H]2O[C@H](CO)[C@H](O)[C@H](O)[C@H]2O)[C@@H](O)[C@H](O)[C@H]1O)OC.CCN(CC)CC (some centres not stated) | Non-toxic | inactive | 40 | 65.5 | 
3 | CCCCCCCCCCCCCCCCOCC(COP(=O)(O)OC1O[C@H](CO)[C@@H](O[C@@H]2O[C@H](CO)[C@H](O)[C@H](O)[C@H]2O)[C@H](O)[C@H]1O)OC.CCN(CC)CC (some centres not stated) | Non-toxic | inactive | 40 | 69.2 | 16
4 | CCCCCCCCCCCCCCCCOCC(COP(=O)(O)OC1O[C@H](CO)[C@@H](O[C@H]2O[C@H](CO)[C@@H](O)[C@H](O)[C@H]2O)[C@H](O)[C@H]1O)OC.CCN(CC)CC (some centres not stated) | Non-toxic | inactive | 40 | 60 | 
5 | CCCCCCCCCCCCCCCCOCC(CO[C@H]1O[C@H](CO)[C@@H](O[C@@H]2O[C@H](CO)[C@H](O)[C@H](O)[C@H]2O)[C@H](O)[C@H]1O)OC (some centres not stated) | Non-toxic | inactive | 40 | 73.2 | 9 (≈ 5.89 µg/mL)
